Patent publication US7501233B2, “Method for measuring the vitality of cells” (priority 2000, dated 2009)
*1 amine or outer side, *2 acyl side, *3 side chain or, on linkers, in order; H or OH if unused. Where a SMILES comes first, the peptide text is derived from it. Bridges are numbered along the chain shown (N, C = ends). Roman numbers before positions name the chains, in order. [ ]: non-standard residue; d: D form. Actinocin(9to1) = Cc1c2oc3c(C)ccc(C(=O)[*:1])c3nc-2c(C(=O)[*:2])c(N)c1=O; NMeV = CN[C@H](C(=O)O)C(C)C; Sar = CNCC(=O)O

Test system: Jurkat cells
Assay: Electrorotation measurement (ER spectra) of single cells in a microelectrode field cage
Format: cell-based
From the text: An instrument already described by C. C. Reichle, T. Schnelle, T. Müller, T. Leya and G. Fuhr (2000, A new microsystem for automatic electrorotation measurements using laser tweezers, Biochimica et Biophysica Acta 1459, p. 218- 229), a combination of dielectrophoretical field cages with optical traps, especially laser tweezers, was used for determination of the electrorotation spectra (FIG. 6). […] Reichle and G. Fuhr 2000, Combined dielectrophoretic field cages and laser tweezers for electrorotation, Applied Physics B, Lasers and Optics, Springer Verlag.
Jurkat T lymphoma cells and U937 monocytic cells were cultivated in RPMI-1640 medium supplemented with 10% fetal calf serum and 100 IU/ml penicillin as well as 100 IU/ml streptomycin. Apoptosis was triggered by addition of 5 μg/ml actinomycin D in a culture that was seeded the day before with 2×10^5 cells per ml. The classical morphological changes during apoptosis were documented photographically (see FIG. 1). At different times, an aliquot was taken from the culture, added to a mixture of isotonic phosphate buffer (PBS, D8662 from SIGMA with calcium and magnesium) and, if desired, 0.3 M inositol with correspondingly indicated electrical conductivity, and introduced in a device for measurement of the electrorotation in a microelectrode system. As a control, untreated Jurkat cells were used (FIG. 5). For comparison, electrorotation spectra (ER spectra) were determined from ionomycin-treated cells ([…]) as well as from cells the plasma membrane of which had been damaged by increasing the voltage from 4 V to 6.8 V or a treatment with optical tweezers with 30-60 mW (2.8 A of the 1 W Nd:YAG laser, TEM00, 1064 nm, LD 3000i, Laser Quantum Ltd., Manchester, UK, P.A.L.M. System) for 15 minutes. For this, the cells were transferred individually to the center of the quadrupole or octupole of the microelectrode system. For this, optical tweezers with a power of approx. 30 mW were used in the indicated cases at the site of holding. The frequency of the cell rotation was measured either automatically or using a timer (FIG. 2). The uptake of propidium iodine (5 μm) in necrotically damaged cells or comparative measurements with vital and apoptotic cells (FIGS. 3 and 4) was measured by confocal nanofluorometry (Gradl, T. Müller, C. Reichle, T. Schnelle and G. Fuhr, 1999, Micro-Electrode Systems for Cell Analysis, European Journal of Cell Biology, Suppl. 49, Vol. 78; T. Schnelle, T. Müller, G. Gradl, S. G. Shirley and G. Fuhr, 2000, Dielectrophoretic manipulation of suspended submicron particles, ELECTROPHORESIS 2000, 21, p. 66-73).
The device for measurement of the electrorotation was attached to a fluorescence correlation spectrometer. The cells were made visible over a 40×W 1.2 NA lens. They were excited with 1.5 μW by a helium-neon laser with a wavelength of 543 nm and the radiated fluorescence was passed through a 585 DF 35 band pass filter over a 50 μm pinhole to a photodiode, with which the fluorescence photons were counted.

[1] = ionomycin-treated cell vs. untreated cell, PBS

| Compound | dielectric constant εω in the cell (ionomycin 10 μM, Jurkat cell in PBS, from fits of ER spectra, increase from 45 (untreated)) | conductivity σ (as sum of σ0, Δσ1 and Δσ2) in the cell (ionomycin 10 μM, approx. 5 min, Jurkat cell in PBS, from fits of ER spectra, increase from 0.77 (untreated)) | increase in the HF conductivity of the cytoplasm [1] | increase of the dielectric constant of the cytoplasm [1] | ratio of rotation speed at 10 MHz to rotation speed at 2.5 MHz (apoptotic Jurkat cell (actinomycin D, 4 hours), normal cell near 1, necrotic 0.6-0.8) | field frequency of highest rotation speed in ER spectrum (apoptotic Jurkat cell, 5 μg/ml actinomycin D for 4 hours (FIG. 2E), normal cell maximum around 2.5 MHz) |
| --- | --- | --- | --- | --- | --- | --- |
| C[C@H](CCC(=O)O)C[C@H](C)C[C@H](C)C(=O)/C=C(\O)[C@H](C)C[C@H](C)C/C=C/[C@@H](C)[C@@H](O)[C@@H](C)[C@@H](O)C[C@@H]1CC[C@@](C)([C@H]2CC[C@@](C)([C@@H](C)O)O2)O1 [ionomycin, Ionomycin] | 75 | 1.15 s m^−1 | approx. 40% | more than 60% |  |  |
| Cc1c2oc3c(C)ccc(C(=O)N[C@@H]4C(=O)N[C@H](C(C)C)C(=O)N5CCC[C@H]5C(=O)N(C)CC(=O)N(C)[C@@H](C(C)C)C(=O)O[C@@H]4C)c3nc-2c(C(=O)N[C@@H]2C(=O)N[C@H](C(C)C)C(=O)N3CCC[C@H]3C(=O)N(C)CC(=O)N(C)[C@@H](C(C)C)C(=O)O[C@@H]2C)c(N)c1=O [actinomycin D, Actinomycin D] (I: T[dV]P[Sar][NMeV] / II: T[dV]P[Sar][NMeV]; ester I:1-I:C, II:1-II:C; linker I:N-II:N via Actinocin(9to1)) |  |  |  |  | 1.4 | approx. 10 MHz |
